Like-named read-outs stand apart in the source and are kept apart here.
Tests used:
Assay type in all cases: cell-based, Acinetobacter baumannii
A. baumannii ACC00535 = test: broth microdilution checkerboard MIC/synergy; conditions: strain ACC00535; rifabutin/SPR741 in combination
Protocol: (§1) Checkerboards were performed according to the CLSI parameters used for microbroth dilution MIC5. CA-MHB, iron-depleted CA-MHB (ID-CA-MHB) or RPMI supplemented with 10% FCS medium were used as specified and ID-CA-MHB was prepared according to CLSI guidelines. […] FICI is calculated as follows: […]

A. baumannii UNT087-1 = test: broth microdilution checkerboard MIC/synergy
Protocol: as §1

A. baumannii UNT239-1 = test: broth microdilution checkerboard MIC/synergy; conditions: strain UNT239-1
Protocol: as §1

A. baumannii 402608-17 = test: broth microdilution checkerboard MIC/synergy; conditions: for MIC: Acinetobacter baumannii, 40260817, strain 402608-17, read-out: MICs alone
Protocol: as §1

A. baumannii IHMA863866 = test: broth microdilution checkerboard MIC/synergy; conditions: strain IHMA863866
Protocol: as §1

A. baumannii IHMA919656 = test: broth microdilution checkerboard MIC/synergy; conditions: strain IHMA919656
Protocol: as §1

A. baumannii HUMC1 = test: broth microdilution checkerboard MIC/synergy; conditions: strain HUMC1
Protocol: as §1

A. baumannii UNT238-1 = test: broth microdilution checkerboard MIC/synergy; conditions: strain UNT238-1
Protocol: as §1

A. baumannii 402292-17 = test: broth microdilution checkerboard MIC/synergy; conditions: for MIC: Acinetobacter baumannii, 40229217, strain 402292-17, read-out: MICs alone
Protocol: as §1

A. baumannii UNT091-1 = test: broth microdilution checkerboard MIC/synergy
Protocol: as §1

A. baumannii UNT191-1 = test: broth microdilution checkerboard MIC/synergy
Protocol: as §1

A. baumannii 401046-18 = test: broth microdilution checkerboard MIC/synergy; conditions: for MIC: Acinetobacter baumannii, 40104618, strain 401046-18, read-out: MICs alone
Protocol: as §1

A. baumannii IHMA867231 = test: broth microdilution checkerboard MIC/synergy; conditions: for MIC: Acinetobacter baumannii, IHMA867231, strain IHMA867231, read-out: MICs alone
Protocol: as §1

A. baumannii 401255-18 = test: broth microdilution checkerboard MIC/synergy; conditions: for MIC: Acinetobacter baumannii, 40125518, strain 401255-18, read-out: MICs alone
Protocol: as §1

A. baumannii IHMA690517 = test: broth microdilution checkerboard MIC/synergy; conditions: strain IHMA690517
Protocol: as §1

A. baumannii IHMA1013816 = test: broth microdilution checkerboard MIC/synergy; conditions: strain IHMA1013816
Protocol: as §1

[1] = tested on: panel of MDR clinical isolates of A. baumannii
Protocol: as §1

[2] = tested on: A. baumannii LAC-4 strain; test: broth microdilution checkerboard MIC/synergy; conditions: strain LAC-4
Protocol: as §1
The checkerboards were performed in CA-MHB or ID-CA-MHB for cefiderocol.

[3] = antibiotic alone, rifabutin/colistin checkerboard, CA-MHB
[4] = rifabutin alone, rifabutin/SPR741 checkerboard
[5] = rifabutin/SPR741 in combination
[6] = rifabutin/cefiderocol in combination, ID-CA-MHB
[7] = rifabutin/colistin in combination, CA-MHB
[8] = antibiotic alone, rifabutin/cefiderocol checkerboard
[9] = rifabutin/cefiderocol in combination

CO[C@H]1/C=C/O[C@@]2(C)Oc3c(C)c(O)c4c(c3C2=O)C2=NC3(CCN(CC(C)C)CC3)NC2=C(NC(=O)/C(C)=C\C=C\[C@H](C)[C@H](O)[C@@H](C)[C@@H](O)[C@@H](C)[C@H](OC(C)=O)[C@@H]1C)C4=O [Rifabutin, rifabutin]
MICs combi / in combination (A. baumannii ACC00535): 0.5 mg/L | MIC (A. baumannii UNT087-1; Acinetobacter baumannii, UNT0871, strain UNT087-1, antibiotic alone, rifabutin/colistin checkerboard, CA-MHB, read-out: MICs alone): 16 µg/mL | MICs combi / in combination (A. baumannii UNT087-1; strain UNT087-1, rifabutin/SPR741 in combination): 0.25 mg/L | MICs combi (A. baumannii UNT087-1; strain UNT087-1, rifabutin/cefiderocol in combination): 4 mg/L | MICs combi (A. baumannii UNT087-1; strain UNT087-1, rifabutin/colistin in combination, CA-MHB): 0.5 mg/L | MICs alone (A. baumannii UNT239-1; [3]): 4 mg/L | MICs alone (A. baumannii UNT239-1; [4]): 4 mg/L | MICs combi / in combination (A. baumannii UNT239-1; [5]): 0.25 mg/L | MICs combi (A. baumannii UNT239-1; [6]): 1 mg/L | MICs combi (A. baumannii UNT239-1; [7]): 1 mg/L | MIC (A. baumannii 402608-17; [8]): 128 µg/mL | MIC (A. baumannii 402608-17; [3]): 128 µg/mL | MIC (A. baumannii 402608-17; [4]): > 32 µg/mL | MICs combi / in combination (A. baumannii 402608-17; strain 402608-17, rifabutin/SPR741 in combination): 2 mg/L | MICs combi (A. baumannii 402608-17; strain 402608-17, rifabutin/cefiderocol in combination): 32 mg/L | MICs combi (A. baumannii 402608-17; strain 402608-17, rifabutin/colistin in combination, CA-MHB): 2 mg/L | MICs alone (A. baumannii IHMA863866; [3]): 4 mg/L | MICs alone (A. baumannii IHMA863866; [4]): 4 mg/L | MICs combi / in combination (A. baumannii IHMA863866; [5]): 2 mg/L | MICs combi (A. baumannii IHMA863866; [9]): 0.125 mg/L | MICs combi (A. baumannii IHMA863866; [7]): 0.06 mg/L | MICs combi / in combination (A. baumannii IHMA919656; [5]): 1 mg/L | MICs combi (A. baumannii IHMA919656; [9]): 4 mg/L | MICs combi (A. baumannii IHMA919656; [7]): 0.03 mg/L | MICs alone (A. baumannii HUMC1; [3]): 4 mg/L | MICs alone (A. baumannii HUMC1; [4]): 4 mg/L | MICs combi / in combination (A. baumannii HUMC1; [5]): 0.25 mg/L | MICs combi (A. baumannii HUMC1; [9]): 4 mg/L | MICs combi (A. baumannii HUMC1; [7]): 0.125 mg/L | MICs combi / in combination (A. baumannii UNT238-1; [5]): 0.125 mg/L | MICs combi (A. baumannii UNT238-1; [6]): 4 mg/L | MICs combi (A. baumannii UNT238-1; [7]): 2 mg/L | MIC (A. baumannii 402292-17; [8]): > 128 µg/mL | MIC (A. baumannii 402292-17; [3]): > 128 µg/mL | MIC (A. baumannii 402292-17; [4]): > 32 µg/mL | MICs combi / in combination (A. baumannii 402292-17; strain 402292-17, rifabutin/SPR741 in combination): 2 mg/L | MICs combi (A. baumannii 402292-17; strain 402292-17, rifabutin/cefiderocol in combination): 128 mg/L | MICs combi (A. baumannii 402292-17; strain 402292-17, rifabutin/colistin in combination, CA-MHB): 4 mg/L | MIC (A. baumannii UNT091-1; Acinetobacter baumannii, UNT0911, strain UNT091-1, rifabutin alone, rifabutin/SPR741 checkerboard, read-out: MICs alone): 0.25 µg/mL | MICs combi / in combination (A. baumannii UNT091-1; strain UNT091-1, rifabutin/SPR741 in combination): 0.06 mg/L | MICs combi (A. baumannii UNT091-1; strain UNT091-1, rifabutin/cefiderocol in combination): 2 mg/L | MICs combi (A. baumannii UNT091-1; strain UNT091-1, rifabutin/colistin in combination, CA-MHB): <0.03 mg/L | MIC (A. baumannii UNT191-1; Acinetobacter baumannii, UNT1911, strain UNT191-1, antibiotic alone, rifabutin/colistin checkerboard, CA-MHB, read-out: MICs alone): 16 µg/mL | MICs combi / in combination (A. baumannii UNT191-1; strain UNT191-1, rifabutin/SPR741 in combination): 0.5 mg/L | MICs combi (A. baumannii UNT191-1; strain UNT191-1, rifabutin/cefiderocol in combination, ID-CA-MHB): 0.5 mg/L | MICs combi (A. baumannii UNT191-1; strain UNT191-1, rifabutin/colistin in combination, CA-MHB): <0.03 mg/L | MIC (A. baumannii 401046-18; antibiotic alone, rifabutin/cefiderocol checkerboard, ID-CA-MHB): 32 µg/mL | MIC (A. baumannii 401046-18; [3]): 64 µg/mL | MIC (A. baumannii 401046-18; [4]): > 32 µg/mL | MICs combi / in combination (A. baumannii 401046-18; strain 401046-18, rifabutin/SPR741 in combination): 2 mg/L | MICs combi (A. baumannii 401046-18; strain 401046-18, rifabutin/cefiderocol in combination, ID-CA-MHB): 16 mg/L | MICs combi (A. baumannii 401046-18; strain 401046-18, rifabutin/colistin in combination, CA-MHB): 1 mg/L | MIC (A. baumannii IHMA867231; [8]): > 128 µg/mL | MIC (A. baumannii IHMA867231; [3]): > 128 µg/mL | MIC (A. baumannii IHMA867231; [4]): > 32 µg/mL | MICs combi / in combination (A. baumannii IHMA867231; strain IHMA867231, rifabutin/SPR741 in combination): >32 mg/L | MICs combi (A. baumannii IHMA867231; strain IHMA867231, rifabutin/cefiderocol in combination): 128 mg/L | MICs combi (A. baumannii IHMA867231; strain IHMA867231, rifabutin/colistin in combination, CA-MHB): 2 mg/L | MIC (A. baumannii 401255-18; [8]): 32 µg/mL | MIC (A. baumannii 401255-18; [3]): 128 µg/mL | MIC (A. baumannii 401255-18; [4]): > 32 µg/mL | MICs combi / in combination (A. baumannii 401255-18; strain 401255-18, rifabutin/SPR741 in combination): 2 mg/L | MICs combi (A. baumannii 401255-18; strain 401255-18, rifabutin/cefiderocol in combination): 16 mg/L | MICs combi (A. baumannii 401255-18; strain 401255-18, rifabutin/colistin in combination, CA-MHB): 2 mg/L | MICs combi / in combination (A. baumannii IHMA690517; [5]): 1 mg/L | MICs combi (A. baumannii IHMA690517; [9]): 4 mg/L | MICs combi (A. baumannii IHMA690517; [7]): 0.06 mg/L | MICs combi / in combination (A. baumannii IHMA1013816; [5]): 2 mg/L | MICs combi (A. baumannii IHMA1013816; [9]): 4 mg/L | MICs combi (A. baumannii IHMA1013816; [7]): 0.125 mg/L | rifabutin combination MICs ([1]; in combination with SPR741, most of the strains): 0.125 to 2 mg/L | shift in rifabutin MIC ([1]; in combination with colistin, isolates with a mutation in the rpoB gene): ≥ 32 fold | MICs alone [2, 3]: 4 mg/L | MICs alone [2, 4]: 4 mg/L | MICs combi / in combination [2, 5]: 0.06 mg/L | MICs combi [2, 6]: 1 mg/L | MICs combi [2, 7]: 0.016 mg/L

— patent US11766425B2, “Antibiotic combination therapies” (BIOVERSYS AG, priority 2019, dated 2023)
